{
  "source": "patent EP1124847B1",
  "about": "“LHRH ANALOGUES FOR THE TREATMENT OF OSTEOPOROSIS” (Ferring B.V., priority 1998, dated 2004)",
  "experiment": "Serum calcium in the ovariectomised rat (colorimetric assay, day 28)",
  "format": "in vivo, Sprague Dawley rats",
  "settings": "ovariectomised rats, 80µg/kg daily for 28days",
  "description": "• (a) Female adult (8 weeks old, 200-215g) Sprague Dawley rats were bilaterally ovariectomised (OVX). Animals were kept for 4 weeks […] before commencing treatment. -Purina rat chow (1.00% calcium, 0.61% phosphorous) and water were provided ad libitum. Each study consisted of 6 weight-matched groups (n = 8/group). • (b) Treatment started 4 weeks post-OVX. After 4 weeks, a baseline control OVX group was sacrificed (Group A). The remaining groups were injected once a day with vehicle (Group B), 1µg/kg body weight (Group C), 10µg/kg body weight (Group D), 100µg/kg body weight (Group E) of GnRH-II, and 80µg/kg body weight (Group F) of hPTH(1-34). • (c) All rats were weighed every fourth day and dosages adjusted for 50g increase in mean group weight. Rats were given alternate subcutaneous injections ofcalcein (30mg/kg) or tetracyclin (30mg/kg) in 2% sodium bicarbonate-saline, respectively to label mineralization surfaces on days 10, 19 and 26, following treatment with drug. Bone mineral density was assessed by dual energy x-ray absorptometry-DEXA). On day 28 serum calcium levels were determined by colorimetric assay using a commercial kit. • (d) Success of OVX was confirmed at necropsy by failure to detect ovarian tissue and by observation of marked atrophy of the uterine horns. Both legs were disarticulated at the hip. […]",
  "data": [
    {"substance": "PTH: Parathyroid hormone, hPTH(1-34), 80µg/kg comparison group (Group F) (SVSEIQLMHNLGKHLNSMERVEWLRKKLQDVHNF; Parathyroid hormone; UniProt P01270 32-65, looked up, fragment)", "values": [
      {"measurement": "serum calcium", "result": "pronounced hypercalcemia"}
    ]}
  ]
}
